Columns and labels:
oxidative stress = assay: Oxidative stress state in hippocampus after chronic social defeat; format: in vivo, Sprague-Dawley rats; conditions: vulnerable (V) rats; 288 μmol/kg/day via osmotic mini-pump for 15 days from D11; measured D31
Experimental: The social-defeat procedure (CSD) (D-3 to DO) was performed as previously described (see Becker et al., 2001; Blugeot et al., 2011).
Briefly, this procedure involved subjecting the same pairs of residents and intruders to four daily conditioning sessions. The 45-min conditioning sessions were divided into two consecutive periods. During period I (30 min), intruders were placed individually in a protective cage within the resident animal's home cage. The protective cage allowed unrestricted visual, auditory, and olfactory contact with the resident but prevented close physical contact. […]
The animals were decapitated and the left hippocampus was homogenized in ice-cold buffer (20 mM Hepes pH 7.2, 1 mM EGTA, 210 mM mannitol, 70 mM sucrose). […] Catalase and total SOD activities were immediately determined with commercially available kits (Cayman Chemical, Ann Arbor, Mich., USA), in accordance with the manufacturer's instructions. SOD and catalase specific activities are expressed as units per mg of hippocampus and as nmoles of formaldehyde formed per minute per mg of hippocampal tissue, respectively. […]
For the TBARS assay, protease inhibitors (50 μl/ml), DOC (1%), SDS (0.1%) and Triton® X-100 (0.5%) were added immediately in ice-cold buffer. […] TBARS concentration was calculated from an MDA standard curve and normalized. […]

Sprague-Dawley rats = assay: Depression-like profile after sensitization paradigm (CSD then CMS); format: in vivo; conditions: TEMPOL administrated before CMS
Experimental: Sprague-Dawley rats were subjected to chronic social defeat (CSD) and then, four weeks later, to three weeks of chronic mild stress (SSP rats). The chronic mild stress protocol (CMS) was performed as previously described (see Blugeot et al., 2011). The control rats were control intruders (not subjected to CSD) not exposed to the three weeks of CMS (C rats).
The CMS protocol is derived from that described by Willner et al. (1992). Briefly, various mild stresses were applied every day, over a period of three weeks. Briefly, from Monday to Friday, every morning, animals were placed in a small cage (10×16×15 cm) for 1 hour. In the afternoon, they were shaken for 10 min (Monday and Thursday), placed in a small cage containing water (2 cm high, Tuesday) or placed in another cage for 4 hours (Wednesday and Friday). Every night, the cage was inclined (45°, Tuesday and Thursday) or contained wet bedding (Wednesday and Friday). On Saturday and Sunday, the rats were subjected to a reversed dark/light cycle for 30 min, every three hours.
Tempol (4-hydroxy-2,2,6,6-tetramethylpiperidine 1-oxyl), which was administered at a dose of 288 μmol/kg/day [Sigma-Aldrich, St Louis, Mo., USA]), was dissolved in distilled water and delivered via ALZET osmotic mini-pumps (2002, Charles River Laboratories, France). […]

CA3 pyramidal cells = assay: CA3 dendritic architecture in Nrf2-null mice; format: in vivo; conditions: Tempol 288 μmol/kg/day, osmotic mini-pump, 4 weeks
Experimental: (§1) Nrf2-null mice were backcrossed onto the C57BL/6 J background for seven generations using alternating male and female stock mice from the CNRS TAAM UPS44 (Orléans). The resulting wild-type (Nrf2+/+) and Nrf2−/− mice were genotyped and only male mice at 6 weeks old at the beginning of the experiments were used. The level of oxidative stress in mice was first evaluated through the measure of lipid peroxidation. Lipid peroxidation was assessed by measuring TBARS formation with a commercial assay kit (Cayman Chemical, Ann Arbor, Mich., USA), in accordance with the manufacturer's instructions. TBARS concentration was calculated from an MDA standard curve and normalized.
(§2) To examine the depression-like phenotype of Nrf2-null mice, the helplessness behaviour, anhedonia and HPA hyperactivity (corticosterone, and adrenal gland weight) were assessed before and after a chronic mild stress (CMS) protocol. The neuroanatomical morphology of hippocampus in mice was estimated using Golgi Staining procedure. Tempol (4-hydroxy-2,2,6,6-tetramethylpiperidine 1-oxyl, Sigma-Aldrich, St Louis, Mo., USA), which was administered at a dose of 288 μmol/kg/day (Wilcox, 2010), was dissolved in distilled water and delivered via ALZET osmotic mini-pumps (1004, Charles River Laboratories, France). […]

Nrf2-null mice = assay: Depression-like phenotype of Nrf2-null mice after CMS; format: in vivo; conditions: Nrf2-null mice after three weeks of CMS; Tempol 288 μmol/kg/day from one week before CMS to end
Experimental: as §1, §2

CC1(C)CC(O)CC(C)(C)N1[O] [TEMPOL, 4-hydroxy-2,2,6,6-tetramethylpiperidin-1-oxyl]
oxidative stress (oxidative stress): decreased the oxidative stress in V animals
depression-like profile generated by the CMS (Sprague-Dawley rats): abolished
dendritic retraction in CA3 pyramidal cells (CA3 pyramidal cells): prevented
depression-like phenotype (helplessness behaviour, anhedonia, HPA hyperactivity) (Nrf2-null mice): prevented

Reference: patent US20190060298A1, “NEW DRUG FOR THE TREATMENT AND/OR PREVENTION OF DEPRESSIVE DISORDERS” (SORBONNE UNIVERSITE, priority 2013, published 2019)
